Source: ChEMBL document CHEMBL5696442, “Discovery of type II inhibitors of TGFβ-activated kinase 1 (TAK1) and mitogen-activated protein kinase kinase kinase kinase 2 (MAP4K2)” (J Med Chem, 2015)
Active and inactive are the calls of the source. The calls are words filed in the database; no cut-off is given here.

How the values were obtained:
[1] = target: Calcium/calmodulin-dependent protein kinase type II subunit gamma (Homo sapiens) (UniProt Q13555); assay: Inhibition of CaMK2g Lys1 labeling site harbouring TSTQEYAAKIINTK in human Huh-7 cells at 1 uM by KiNativ Profiling analysis relative to control; assay type: cell-based
[2] = target: Serine/threonine-protein kinase 26 (Homo sapiens) (UniProt Q9P289); assay: Inhibition of MST4 Lys1 labeling site in human Huh-7 cells at 1 uM by KiNativ Profiling analysis relative to control; assay type: cell-based
[3] = target: Serine/threonine-protein kinase 26 (Homo sapiens) (UniProt Q9P289); assay: Inhibition of MST4 Lys2 labeling site in human Huh-7 cells at 1 uM by KiNativ Profiling analysis relative to control; assay type: cell-based
[4] = target: Epidermal growth factor receptor (Homo sapiens) (UniProt P00533); assay: Inhibition of EGFR Lys1 labeling site in human A-375 cells at 5 uM by KiNativ Profiling analysis relative to control; assay type: cell-based
[5] = target: Ribosomal protein S6 kinase alpha-2 (Homo sapiens) (UniProt Q15349); assay: Inhibition of N-terminal RPS6KA2 kinase domain 1 (unknown origin) at 10 uM by Ambit Kinomescan binding assay
[6] = target: Tyrosine-protein kinase receptor Tie-1 (Homo sapiens) (UniProt P35590); assay: Inhibition of TIE1 (unknown origin) at 10 uM by Ambit Kinomescan binding assay relative to control; values are per cent of control
[7] = target: T1, Eukaryotic translation initiation factor 2-alpha kinase 3 (Homo sapiens) (UniProt Q9NZJ5); assay: Inhibition of PEK K2 labeling site in human Huh-7 cells at 10 uM by KiNativ Profiling analysis relative to control; assay type: cell-based
T1 sequence (whole entry): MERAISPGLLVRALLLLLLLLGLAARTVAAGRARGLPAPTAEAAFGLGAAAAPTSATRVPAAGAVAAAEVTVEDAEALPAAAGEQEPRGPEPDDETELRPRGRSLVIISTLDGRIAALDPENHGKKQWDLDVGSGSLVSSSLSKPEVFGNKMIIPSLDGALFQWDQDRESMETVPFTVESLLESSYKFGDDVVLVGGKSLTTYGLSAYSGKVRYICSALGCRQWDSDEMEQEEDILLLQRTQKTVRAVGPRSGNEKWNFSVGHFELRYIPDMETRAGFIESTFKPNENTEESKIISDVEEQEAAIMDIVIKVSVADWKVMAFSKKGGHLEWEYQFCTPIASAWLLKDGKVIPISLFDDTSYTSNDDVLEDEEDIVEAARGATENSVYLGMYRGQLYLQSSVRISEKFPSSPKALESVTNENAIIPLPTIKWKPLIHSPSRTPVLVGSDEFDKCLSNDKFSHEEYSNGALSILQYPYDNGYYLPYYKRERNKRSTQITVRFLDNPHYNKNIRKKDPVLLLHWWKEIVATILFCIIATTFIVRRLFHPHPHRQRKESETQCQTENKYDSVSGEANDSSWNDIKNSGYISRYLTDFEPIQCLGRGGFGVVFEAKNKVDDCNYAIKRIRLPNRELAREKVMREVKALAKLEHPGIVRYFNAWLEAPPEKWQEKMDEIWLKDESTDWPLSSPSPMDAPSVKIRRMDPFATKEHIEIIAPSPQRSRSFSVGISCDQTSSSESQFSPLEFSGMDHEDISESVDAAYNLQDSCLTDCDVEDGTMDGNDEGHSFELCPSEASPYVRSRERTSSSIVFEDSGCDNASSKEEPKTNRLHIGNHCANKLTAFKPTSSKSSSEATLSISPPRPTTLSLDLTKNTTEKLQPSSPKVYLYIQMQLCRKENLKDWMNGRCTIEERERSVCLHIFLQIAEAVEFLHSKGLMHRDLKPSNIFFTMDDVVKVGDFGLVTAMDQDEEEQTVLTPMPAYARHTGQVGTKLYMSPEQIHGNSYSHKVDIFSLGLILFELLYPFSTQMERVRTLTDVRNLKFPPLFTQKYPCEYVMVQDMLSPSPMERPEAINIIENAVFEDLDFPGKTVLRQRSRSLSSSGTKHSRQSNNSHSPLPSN

[8] = target: MAP kinase-activated protein kinase 5 (Homo sapiens) (UniProt Q8IW41); assay: Inhibition of MAPKAPK5 (unknown origin) at 10 uM by Ambit Kinomescan binding assay
[9] = target: Mitogen-activated protein kinase 11 (Homo sapiens) (UniProt Q15759); assay: Inhibition of p38beta (unknown origin) at 10 uM by Ambit Kinomescan binding assay relative to control; values are per cent of control
[10] = system: Receptor-type tyrosine-protein kinase FLT3 (Homo sapiens), P36888 [UNDEFINED MUTATION]; assay: Inhibition of FLT3 ITD mutant (unknown origin) at 10 uM by Ambit Kinomescan binding assay relative to control
[11] = target: TGF-beta receptor type-1 (Homo sapiens) (UniProt P36897); assay: Inhibition of TGFBR1 (unknown origin) at 1 uM by Ambit Kinomescan binding assay relative to control
[12] = target: T2, Phosphatidylinositol 5-phosphate 4-kinase type-2 gamma (Homo sapiens) (UniProt Q8TBX8); assay: Inhibition of PIP5K2C (unknown origin) at 1 uM by Ambit Kinomescan binding assay relative to control; values are per cent of control
T2 sequence (whole entry): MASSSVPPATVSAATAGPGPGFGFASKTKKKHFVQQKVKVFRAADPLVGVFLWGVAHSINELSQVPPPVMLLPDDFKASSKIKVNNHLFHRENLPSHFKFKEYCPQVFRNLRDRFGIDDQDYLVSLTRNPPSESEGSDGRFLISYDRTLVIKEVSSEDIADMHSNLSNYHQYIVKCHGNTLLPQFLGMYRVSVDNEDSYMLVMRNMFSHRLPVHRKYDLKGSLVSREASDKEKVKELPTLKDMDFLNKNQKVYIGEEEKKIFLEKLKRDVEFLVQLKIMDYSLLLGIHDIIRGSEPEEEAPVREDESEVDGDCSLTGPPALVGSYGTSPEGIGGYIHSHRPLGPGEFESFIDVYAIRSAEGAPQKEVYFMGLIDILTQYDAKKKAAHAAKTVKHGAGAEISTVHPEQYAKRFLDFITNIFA

[13] = target: Serine/threonine-protein kinase 24 (Homo sapiens) (UniProt Q9Y6E0); assay: Inhibition of MST3 (unknown origin) at 1 uM by Ambit Kinomescan binding assay relative to control
[14] = target: LIM domain kinase 2 (Homo sapiens) (UniProt P53671); assay: Inhibition of LIMK2 (unknown origin) at 1 uM by Ambit Kinomescan binding assay relative to control; values are per cent of control
[15] = target: Mitogen-activated protein kinase 11 (Homo sapiens) (UniProt Q15759); assay: Inhibition of p38 beta in human A-375 cells at 5 uM by KiNativ Profiling analysis relative to control; assay type: cell-based
[16] = target: Serine/threonine-protein kinase 4 (Homo sapiens) (UniProt Q13043); assay: Inhibition of MST1 (unknown origin) at 1 uM by Ambit Kinomescan binding assay relative to control
Sequence of Serine/threonine-protein kinase 4 (Homo sapiens) (Q13043 whole entry, looked up): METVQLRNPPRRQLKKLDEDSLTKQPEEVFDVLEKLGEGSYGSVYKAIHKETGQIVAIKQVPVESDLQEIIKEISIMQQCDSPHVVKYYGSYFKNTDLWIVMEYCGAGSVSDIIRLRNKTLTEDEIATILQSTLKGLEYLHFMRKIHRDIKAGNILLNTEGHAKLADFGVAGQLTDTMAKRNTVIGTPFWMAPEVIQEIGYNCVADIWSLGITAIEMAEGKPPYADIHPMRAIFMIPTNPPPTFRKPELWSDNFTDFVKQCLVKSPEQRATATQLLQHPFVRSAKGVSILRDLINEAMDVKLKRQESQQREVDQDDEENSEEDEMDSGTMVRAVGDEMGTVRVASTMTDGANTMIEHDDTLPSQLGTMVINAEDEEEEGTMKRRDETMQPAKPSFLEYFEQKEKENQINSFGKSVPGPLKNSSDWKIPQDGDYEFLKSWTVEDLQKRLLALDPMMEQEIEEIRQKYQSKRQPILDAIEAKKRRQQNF

Sequence of Serine/threonine-protein kinase 26 (Homo sapiens) (Q9P289 2-416 limits assumed): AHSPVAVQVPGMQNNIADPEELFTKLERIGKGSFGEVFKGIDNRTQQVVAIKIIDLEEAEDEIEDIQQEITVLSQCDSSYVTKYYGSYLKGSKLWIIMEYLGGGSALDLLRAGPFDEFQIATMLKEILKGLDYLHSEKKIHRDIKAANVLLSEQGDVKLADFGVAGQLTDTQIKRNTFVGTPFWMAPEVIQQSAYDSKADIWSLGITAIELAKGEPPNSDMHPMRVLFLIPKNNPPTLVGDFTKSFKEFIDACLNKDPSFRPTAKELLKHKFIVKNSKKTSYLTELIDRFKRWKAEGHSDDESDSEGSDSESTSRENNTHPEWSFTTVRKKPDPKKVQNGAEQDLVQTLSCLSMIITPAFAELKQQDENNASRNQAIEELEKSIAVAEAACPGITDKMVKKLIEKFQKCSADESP
Sequence of Mitogen-activated protein kinase 11 (Homo sapiens) (Q15759 whole entry): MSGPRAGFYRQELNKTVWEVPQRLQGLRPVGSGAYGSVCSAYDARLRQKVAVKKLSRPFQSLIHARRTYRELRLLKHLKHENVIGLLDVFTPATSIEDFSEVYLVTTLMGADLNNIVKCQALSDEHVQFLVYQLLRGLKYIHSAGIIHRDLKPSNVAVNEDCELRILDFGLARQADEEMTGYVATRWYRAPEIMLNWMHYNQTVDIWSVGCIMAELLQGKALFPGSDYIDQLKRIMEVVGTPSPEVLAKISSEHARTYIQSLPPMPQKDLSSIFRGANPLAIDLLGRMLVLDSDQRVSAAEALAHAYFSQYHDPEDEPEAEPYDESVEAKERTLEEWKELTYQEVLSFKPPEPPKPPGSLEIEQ
Sequence of Receptor-type tyrosine-protein kinase FLT3 (Homo sapiens), P36888 [UNDEFINED MUTATION] (P36888 whole entry, looked up, change not shown): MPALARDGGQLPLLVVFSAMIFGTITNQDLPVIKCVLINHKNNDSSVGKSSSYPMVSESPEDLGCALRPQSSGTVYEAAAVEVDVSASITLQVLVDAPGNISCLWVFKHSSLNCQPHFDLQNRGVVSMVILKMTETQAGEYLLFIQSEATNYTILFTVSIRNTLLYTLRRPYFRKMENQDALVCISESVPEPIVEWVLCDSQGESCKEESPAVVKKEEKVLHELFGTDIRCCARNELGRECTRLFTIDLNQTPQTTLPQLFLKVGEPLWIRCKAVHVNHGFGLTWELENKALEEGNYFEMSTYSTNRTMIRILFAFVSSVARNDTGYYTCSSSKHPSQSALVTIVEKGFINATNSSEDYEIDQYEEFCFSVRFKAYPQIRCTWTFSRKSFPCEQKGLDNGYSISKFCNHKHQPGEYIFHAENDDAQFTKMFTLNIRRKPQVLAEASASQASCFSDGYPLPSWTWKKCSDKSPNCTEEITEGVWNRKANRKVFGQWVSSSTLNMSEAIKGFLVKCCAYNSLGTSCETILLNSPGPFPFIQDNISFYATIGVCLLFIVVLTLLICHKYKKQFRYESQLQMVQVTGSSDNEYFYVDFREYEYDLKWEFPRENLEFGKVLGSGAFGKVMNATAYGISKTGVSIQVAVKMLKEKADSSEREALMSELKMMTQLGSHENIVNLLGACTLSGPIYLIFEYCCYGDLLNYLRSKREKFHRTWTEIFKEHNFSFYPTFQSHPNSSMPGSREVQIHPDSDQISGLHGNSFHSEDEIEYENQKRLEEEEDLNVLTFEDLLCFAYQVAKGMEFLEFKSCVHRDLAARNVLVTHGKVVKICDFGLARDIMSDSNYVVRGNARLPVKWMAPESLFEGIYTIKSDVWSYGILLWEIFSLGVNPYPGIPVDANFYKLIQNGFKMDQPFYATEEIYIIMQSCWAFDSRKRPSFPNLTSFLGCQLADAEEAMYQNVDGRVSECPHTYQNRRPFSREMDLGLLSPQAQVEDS
Sequence of TGF-beta receptor type-1 (Homo sapiens) (P36897 whole entry): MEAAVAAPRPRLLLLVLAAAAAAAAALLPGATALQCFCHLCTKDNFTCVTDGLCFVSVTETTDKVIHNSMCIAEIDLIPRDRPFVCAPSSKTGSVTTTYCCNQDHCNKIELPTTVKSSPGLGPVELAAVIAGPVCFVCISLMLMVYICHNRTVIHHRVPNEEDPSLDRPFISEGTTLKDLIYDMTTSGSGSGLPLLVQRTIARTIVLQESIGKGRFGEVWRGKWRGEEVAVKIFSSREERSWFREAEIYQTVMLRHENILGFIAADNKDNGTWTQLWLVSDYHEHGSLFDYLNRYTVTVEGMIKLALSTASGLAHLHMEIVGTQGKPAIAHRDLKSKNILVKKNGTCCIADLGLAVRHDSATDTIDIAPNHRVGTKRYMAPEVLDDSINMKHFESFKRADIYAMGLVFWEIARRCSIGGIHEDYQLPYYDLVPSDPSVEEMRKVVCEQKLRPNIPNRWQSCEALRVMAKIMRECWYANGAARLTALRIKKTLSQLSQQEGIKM
Sequence of Serine/threonine-protein kinase 24 (Homo sapiens) (Q9Y6E0 whole entry, looked up, the tested form may be a part): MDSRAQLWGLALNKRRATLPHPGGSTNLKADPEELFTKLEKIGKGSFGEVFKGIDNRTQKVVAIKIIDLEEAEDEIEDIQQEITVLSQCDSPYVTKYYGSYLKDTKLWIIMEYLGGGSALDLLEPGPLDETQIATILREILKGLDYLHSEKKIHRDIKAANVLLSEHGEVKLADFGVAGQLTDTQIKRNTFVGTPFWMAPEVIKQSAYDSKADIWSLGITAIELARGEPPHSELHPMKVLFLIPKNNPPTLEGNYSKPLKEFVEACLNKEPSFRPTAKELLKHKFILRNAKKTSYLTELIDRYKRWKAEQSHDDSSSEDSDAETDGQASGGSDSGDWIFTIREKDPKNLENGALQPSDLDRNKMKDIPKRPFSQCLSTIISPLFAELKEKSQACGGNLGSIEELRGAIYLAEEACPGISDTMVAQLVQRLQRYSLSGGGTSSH
Sequence of Tyrosine-protein kinase receptor Tie-1 (Homo sapiens) (P35590 whole entry): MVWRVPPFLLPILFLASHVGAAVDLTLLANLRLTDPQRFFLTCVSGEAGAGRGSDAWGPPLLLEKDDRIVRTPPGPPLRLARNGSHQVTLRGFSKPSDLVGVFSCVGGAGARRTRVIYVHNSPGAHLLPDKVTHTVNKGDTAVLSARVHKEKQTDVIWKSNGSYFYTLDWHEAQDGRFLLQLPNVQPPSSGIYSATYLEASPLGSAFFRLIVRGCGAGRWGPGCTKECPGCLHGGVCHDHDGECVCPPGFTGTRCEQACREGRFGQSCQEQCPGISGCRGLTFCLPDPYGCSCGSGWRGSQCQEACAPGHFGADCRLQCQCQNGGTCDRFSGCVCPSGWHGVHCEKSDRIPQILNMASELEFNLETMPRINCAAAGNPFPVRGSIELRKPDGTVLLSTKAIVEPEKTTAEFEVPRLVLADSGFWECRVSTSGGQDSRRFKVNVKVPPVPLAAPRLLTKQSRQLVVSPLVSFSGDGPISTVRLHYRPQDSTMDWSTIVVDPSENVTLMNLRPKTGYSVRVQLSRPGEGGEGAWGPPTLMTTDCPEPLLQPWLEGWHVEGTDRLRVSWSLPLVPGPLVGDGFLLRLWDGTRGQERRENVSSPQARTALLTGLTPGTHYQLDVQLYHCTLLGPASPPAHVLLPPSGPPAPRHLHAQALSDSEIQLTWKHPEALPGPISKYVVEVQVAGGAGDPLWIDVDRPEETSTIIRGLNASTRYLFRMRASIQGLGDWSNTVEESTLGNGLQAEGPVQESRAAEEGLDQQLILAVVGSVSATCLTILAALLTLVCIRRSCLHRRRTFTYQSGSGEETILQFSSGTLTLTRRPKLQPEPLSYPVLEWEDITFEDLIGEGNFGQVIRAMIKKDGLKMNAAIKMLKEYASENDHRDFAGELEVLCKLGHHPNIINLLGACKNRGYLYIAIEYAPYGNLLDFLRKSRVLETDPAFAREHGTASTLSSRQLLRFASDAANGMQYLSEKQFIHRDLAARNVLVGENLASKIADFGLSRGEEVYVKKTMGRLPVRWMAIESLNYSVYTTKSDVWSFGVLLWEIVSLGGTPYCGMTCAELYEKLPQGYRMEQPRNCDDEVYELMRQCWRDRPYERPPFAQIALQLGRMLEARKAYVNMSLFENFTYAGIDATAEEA
Sequence of LIM domain kinase 2 (Homo sapiens) (P53671 whole entry, looked up, the tested form may be a part): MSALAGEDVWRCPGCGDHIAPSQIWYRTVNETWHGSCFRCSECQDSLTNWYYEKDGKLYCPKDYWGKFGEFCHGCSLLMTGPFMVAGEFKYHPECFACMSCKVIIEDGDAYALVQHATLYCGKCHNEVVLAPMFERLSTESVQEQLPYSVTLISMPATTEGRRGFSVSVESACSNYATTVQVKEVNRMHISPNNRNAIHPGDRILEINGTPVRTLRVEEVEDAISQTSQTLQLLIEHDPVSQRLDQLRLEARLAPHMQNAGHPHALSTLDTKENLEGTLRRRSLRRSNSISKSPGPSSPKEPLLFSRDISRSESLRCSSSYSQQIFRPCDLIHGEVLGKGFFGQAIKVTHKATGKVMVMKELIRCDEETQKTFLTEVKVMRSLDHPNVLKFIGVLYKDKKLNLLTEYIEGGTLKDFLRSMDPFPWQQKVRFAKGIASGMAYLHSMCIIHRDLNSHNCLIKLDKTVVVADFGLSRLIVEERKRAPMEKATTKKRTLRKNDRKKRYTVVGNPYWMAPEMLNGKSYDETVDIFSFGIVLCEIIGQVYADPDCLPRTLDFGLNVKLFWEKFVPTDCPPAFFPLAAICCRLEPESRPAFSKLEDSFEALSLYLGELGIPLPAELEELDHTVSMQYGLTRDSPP

**Q.** How did the inhibition [1] turn out when `CNc1cc(Oc2cc(C(=O)Nc3cc(N4CCN(C)CC4)cc(C(F)(F)F)c3)ccc2C)ncn1` was run?
**A.** 27.1%

**Q.** And the inhibition [2]?
**A.** 41.9%

**Q.** And the inhibition [3]?
**A.** 25.2%

**Q.** `CCN1CCN(Cc2ccc(NC(=O)c3ccc(C)c(Oc4ccnc5[nH]ccc45)c3)cc2C(F)(F)F)CC1` was tested. Which inhibition [4] did it give?
**A.** -1.5%

**Q.** What about the inhibition [5] of the same compound?
**A.** inactive

**Q.** And the residual activity [6]?
**A.** 0.95%

**Q.** And the inhibition [7]?
**A.** inactive

**Q.** What about the inhibition [8] of the same compound?
**A.** inactive

**Q.** What about the percent of control [9] of the same compound?
**A.** 0%

**Q.** What about the inhibition [10] of the same compound?
**A.** 0.7%

**Q.** `CCN1CCN(Cc2ccc(NC(=O)c3ccc(C)c(/C=C/c4cnc5[nH]ccc5c4OC)c3)cc2C(F)(F)F)CC1` was tested. Which inhibition [11] did it give?
**A.** 100%

**Q.** And the residual activity [12]?
**A.** 100%

**Q.** And the inhibition [13]?
**A.** 75%

**Q.** What about the residual activity [14] of the same compound?
**A.** 26%

**Q.** And the inhibition [15]?
**A.** 79.9%

**Q.** And the inhibition [16]?
**A.** 72%
